Results published in publication PMC10489938, “Developing an Amide-Spacered Triterpenoid Rhodamine Hybrid of Nano-Molar Cytotoxicity Combined with Excellent Tumor Cell/Non-Tumor Cell Selectivity” (Molecules, 2023).
Counter-ions that a name gives are not always drawn. Like-named read-outs stand apart in the source and are kept apart here.

Experiments:
[1] = test system: MCF7 (breast adenocarcinoma); test: SRB cytotoxicity assay, MCF7; format: cell-based, human; settings: Homo sapiens, MCF7, SRB assay, 72 h of treatment, cut-off 30 μM, read-out: Cytotoxicity (EC50) MCF7
Procedure: (§1) Sulforhodamine (SRB) assays were performed to evaluate the cytotoxicity of the compounds. First, the cytotoxicity of the different rhodamines was determined; the results of these assays are compiled in Table 1 and Table 2 and depicted in Figure 1.
(§2) Experimental equipment: as previously described biological assays were performed as previously reported employing cell lines obtained from the Department of Oncology [Martin-Luther-University Halle Wittenberg; they were bought from ATCC [2, 4, 7]]. Rhodamine 101 B, as well as asiatic acid, were obtained from local vendors and used as received.
(§3) For the SRB assay and staining experiments: as previously described.

[2] = test system: HeLa (cervical adenocarcinoma); test: SRB cytotoxicity assay, HeLa; format: cell-based, human; settings: Homo sapiens, HeLa, SRB assay, 72 h of treatment, cut-off 30 μM, read-out: Cytotoxicity (EC50) HeLa
Procedure: as §1, §2, §3

[3] = test system: A2780 (ovarian carcinoma); test: SRB cytotoxicity assay, A2780; format: cell-based, human; settings: Homo sapiens, A2780, SRB assay, 72 h of treatment, cut-off 30 μM, read-out: Cytotoxicity (EC50) A2780
Procedure: as §1, §2, §3

A375 (melanoma) = test: SRB cytotoxicity assay, A375; format: cell-based, human; settings: Homo sapiens, A-375, SRB assay, 72 h of treatment, cut-off 30 μM, read-out: Cytotoxicity (EC50) A375
Procedure: as §1, §2, §3

[4] = test system: HT29 (colorectal carcinoma); test: SRB cytotoxicity assay, HT29; format: cell-based, human; settings: Homo sapiens, HT-29, SRB assay, 72 h of treatment, cut-off 30 μM, read-out: Cytotoxicity (EC50) HT29
Procedure: as §1, §2, §3

[5] = SRB cytotoxicity assay, NIH 3T3; format: cell-based, murine; settings: mouse, NIH 3T3 non-malignant fibroblasts, cut-off 30 μM
Procedure: as §1, §2, §3

SMILES: CCCCN(CCCC)c1ccc2c(-c3ccccc3C(=O)N3CCCN(C(=O)[C@]45CC[C@@H](C)[C@H](C)[C@H]4C4=CC[C@@H]6[C@@]7(C)C[C@@H](OC(C)=O)[C@H](OC(C)=O)[C@@](C)(COC(C)=O)C7CC[C@@]6(C)[C@]4(C)CC5)CCC3)c3ccc(=[N+](CCCC)CCCC)cc-3oc2c1 (stereo partly drawn) (as salt: chloride) [compound 19, (2α,3β,4α)-9-[2-[{4-(2α,3β,23-Tris(Acetyloxy)-urs-12-en-28-oyl)-1,5-Diazocan-1-Yl]Carbonyl}Phenyl]-3,6-Bis(Dibutylamino)-Xanthylium Chloride]
- melting point: 215 to 218 °C

SMILES: CC(=O)OC[C@@]1(C)C2CC[C@]3(C)[C@H](CC=C4[C@@H]5[C@@H](C)[C@H](C)CC[C@]5(C(=O)N5CCCN(C(=O)c6ccccc6-c6c7ccc(=[N+](C)C)cc-7oc7cc(N(C)C)ccc67)CCC5)CC[C@]43C)[C@@]2(C)C[C@@H](OC(C)=O)[C@@H]1OC(C)=O (stereo partly drawn) (as salt: chloride) [compound 16, (2α,3β,4α)-9-[2-[{4-(2α,3β,23-Tris(Acetyloxy)-urs-12-en-28-oyl)-1,5-Diazocan-1-Yl]Carbonyl}Phenyl]-3,6-Bis(Dimethylamino)-Xanthylium Chloride]
- melting point: 224 to 226 °C

SMILES: CCCCN(CCCC)c1ccc2c(-c3ccccc3C(=O)N3CCCN(C(=O)[C@]45CC[C@@H](C)[C@H](C)[C@H]4C4=CC[C@@H]6[C@@]7(C)C[C@@H](OC(C)=O)[C@H](OC(C)=O)[C@@](C)(COC(C)=O)C7CC[C@@]6(C)[C@]4(C)CC5)CC3)c3ccc(=[N+](CCCC)CCCC)cc-3oc2c1 (stereo partly drawn) (as salt: chloride) [compound 14, (2α,3β,4α)-9-[2-{[4-(2α,3β,23-Tris(Acetyloxy)-urs-12-en-28-oyl)-Homopiperazinyl]Carbonyl}Phenyl]-3,6-Bis(Dibutylamino)-Xanthylium Chloride]
- melting point: 210 to 213 °C

SMILES: CCCN(CCC)c1ccc2c(-c3ccccc3C(=O)N3CCCN(C(=O)[C@]45CC[C@@H](C)[C@H](C)[C@H]4C4=CC[C@@H]6[C@@]7(C)C[C@@H](OC(C)=O)[C@H](OC(C)=O)[C@@](C)(COC(C)=O)C7CC[C@@]6(C)[C@]4(C)CC5)CCC3)c3ccc(=[N+](CCC)CCC)cc-3oc2c1 (stereo partly drawn) (as salt: chloride) [compound 18, (2α,3β,4α)-9-[2-[{4-(2α,3β,23-Tris(Acetyloxy)-urs-12-en-28-oyl)-1,5-Diazocan-1-Yl]Carbonyl}Phenyl]-3,6-Bis(Dipropylamino)-Xanthylium Chloride]
- melting point: 207 to 209 °C

SMILES: CCN(CC)c1ccc2c(-c3ccccc3C(=O)N3CCCN(C(=O)[C@]45CC[C@@H](C)[C@H](C)[C@H]4C4=CC[C@@H]6[C@@]7(C)C[C@@H](OC(C)=O)[C@H](OC(C)=O)[C@@](C)(COC(C)=O)C7CC[C@@]6(C)[C@]4(C)CC5)CCC3)c3ccc(=[N+](CC)CC)cc-3oc2c1 (stereo partly drawn) (as salt: chloride) [compound 17, (2α,3β,4α)-9-[2-[{4-(2α,3β,23-Tris(Acetyloxy)-urs-12-en-28-oyl)-1,5-Diazocan-1-Yl]Carbonyl}Phenyl]-3,6-Bis(Diethylamino)-Xanthylium Chloride]
- melting point: 222 to 227 °C

SMILES: CC(=O)OC[C@@]1(C)C2CC[C@]3(C)[C@H](CC=C4[C@@H]5[C@@H](C)[C@H](C)CC[C@]5(C(=O)N5CCCN(C(=O)c6ccccc6-c6c7ccc(=[N+](C)C)cc-7oc7cc(N(C)C)ccc67)CC5)CC[C@]43C)[C@@]2(C)C[C@@H](OC(C)=O)[C@@H]1OC(C)=O (stereo partly drawn) (as salt: chloride) [compound 11, (2α,3β,4α)-9-[2-{[4-(2α,3β,23-Tris(Acetyloxy)-urs-12-en-28-oyl)-Homopiperazinyl]Carbonyl}Phenyl]-3,6-Bis(Dimethylamino)-Xanthylium Chloride]
- melting point: 258 to 260 °C

SMILES: CCCN(CCC)c1ccc2c(-c3ccccc3C(=O)N3CCN(C(=O)[C@]45CC[C@@H](C)[C@H](C)[C@H]4C4=CC[C@@H]6[C@@]7(C)C[C@@H](OC(C)=O)[C@H](OC(C)=O)[C@@](C)(COC(C)=O)C7CC[C@@]6(C)[C@]4(C)CC5)CC3)c3ccc(=[N+](CCC)CCC)cc-3oc2c1 (stereo partly drawn) (as salt: chloride) [compound 8, (2α,3β,4α)-9-[2-{[4-(2,3,23-Tris(Acetyloxy)-urs-12-en-28-oyl)-Piperazinyl]Carbonyl}Phenyl]-3,6-Bis(Dipropylamino)-Xanthylium Chloride]
- melting point: 226 to 228 °C

SMILES: CCCCN(CCCC)c1ccc2c(-c3ccccc3C(=O)N3CCN(C(=O)[C@]45CC[C@@H](C)[C@H](C)[C@H]4C4=CC[C@@H]6[C@@]7(C)C[C@@H](OC(C)=O)[C@H](OC(C)=O)[C@@](C)(COC(C)=O)C7CC[C@@]6(C)[C@]4(C)CC5)CC3)c3ccc(=[N+](CCCC)CCCC)cc-3oc2c1 (stereo partly drawn) (as salt: chloride) [compound 9, (2α,3β,4α)-9-[2-{[4-(2,3,23-Tris(Acetyloxy)-urs-12-en-28-oyl)-Piperazinyl]Carbonyl}Phenyl]-3,6-Bis(Dibutylamino)-Xanthylium Chloride]
- melting point: 222 to 226 °C

SMILES: CC(=O)OC[C@@]1(C)C2CC[C@]3(C)[C@H](CC=C4[C@@H]5[C@@H](C)[C@H](C)CC[C@]5(C(=O)N5CCCN(C(=O)c6ccccc6C6=c7cc8c9c(c7Oc7c6cc6c%10c7CCCN%10CCC6)CCC[N+]=9CCC8)CC5)CC[C@]43C)[C@@]2(C)C[C@@H](OC(C)=O)[C@@H]1OC(C)=O (stereo partly drawn) (as salt: chloride) [compound 15]
- melting point: 287 to 289 °C

SMILES: CCCCN(CCCC)c1ccc2c(-c3ccccc3C(=O)N3CCCN(C(=O)[C@]45CC[C@@H](C)[C@H](C)[C@H]4C4=CC[C@@H]6[C@@]7(C)C[C@@H](OC(C)=O)[C@H](OC(C)=O)[C@@](C)(COC(C)=O)C7CC[C@@]6(C)[C@]4(C)CC5)CCC3)c3ccc(=[N+](CCCC)CCCC)cc-3oc2c1 (stereo partly drawn) [compound 19, (2α,3β,4α)-9-[2-[{4-(2α,3β,23-Tris(Acetyloxy)-urs-12-en-28-oyl)-1,5-Diazocan-1-Yl]Carbonyl}Phenyl]-3,6-Bis(Dibutylamino)-Xanthylium Chloride]
- EC50 ([1]; Table 2): 40 ± 5 nM
- EC50 ([2]; Table 2): 170 ± 80 nM
- EC50 ([3]; Table 2): 6 ± 2 nM
- EC50 (A375 (melanoma); Table 2): 30 ± 10 nM
- EC50 ([4]; Table 2): 30 ± 10 nM
- EC50 at 72 h ([5]; Table 2, 72 h of treatment): 240 ± 80 nM

SMILES: CC(=O)OC[C@@]1(C)C2CC[C@]3(C)[C@H](CC=C4[C@@H]5[C@@H](C)[C@H](C)CC[C@]5(C(=O)N5CCN(C(=O)c6ccccc6C6=c7cc8c9c(c7Oc7c6cc6c%10c7CCCN%10CCC6)CCC[N+]=9CCC8)CC5)CC[C@]43C)[C@@]2(C)C[C@@H](OC(C)=O)[C@@H]1OC(C)=O (stereo partly drawn) [compound 10]
- EC50 ([1]; Table 2): 50 ± 10 nM
- EC50 ([2]; Table 2): 220 ± 50 nM
- EC50 ([3]; Table 2): 9 ± 2 nM
- EC50 (A375 (melanoma); Table 2): 45 ± 4 nM
- EC50 ([4]; Table 2): 50 ± 20 nM
- EC50 at 72 h ([5]; Table 2, 72 h of treatment): 250 ± 50 nM

SMILES: CCCCN(CCCC)c1ccc2c(-c3ccccc3C(=O)O)c3ccc(=[N+](CCCC)CCCC)cc-3oc2c1 [Rh4, reference compound]
- EC50 ([1]; Table 1): 3080 ± 60 nM
- EC50 ([2]; Table 1): 4300 ± 300 nM
- EC50 ([3]; Table 1): 3400 ± 100 nM
- EC50 (A375 (melanoma); Table 1): 4300 ± 100 nM
- EC50 ([4]; Table 1): 4900 ± 300 nM
- EC50 at 72 h ([5]; Table 1, 72 h of treatment): 4300 ± 100 nM

SMILES: O=C(O)c1ccccc1C1=c2cc3c4c(c2Oc2c1cc1c5c2CCCN5CCC1)CCC[N+]=4CCC3 [Rh5, rhodamine 101, reference compound]
- EC50 ([1]; Table 1): 8200 ± 800 nM
- EC50 ([2]; Table 1): 11800 ± 1100 nM
- EC50 ([3]; Table 1): 8000 ± 1500 nM
- EC50 (A375 (melanoma); Table 1): 11200 ± 1800 nM
- EC50 ([4]; Table 1): 18500 ± 1800 nM
- EC50 at 72 h ([5]; Table 1, 72 h of treatment): 11900 ± 1300 nM

SMILES: CCCCN(CCCC)c1ccc2c(-c3ccccc3C(=O)N3CCCN(C(=O)[C@]45CC[C@@H](C)[C@H](C)[C@H]4C4=CC[C@@H]6[C@@]7(C)C[C@@H](OC(C)=O)[C@H](OC(C)=O)[C@@](C)(COC(C)=O)C7CC[C@@]6(C)[C@]4(C)CC5)CC3)c3ccc(=[N+](CCCC)CCCC)cc-3oc2c1 (stereo partly drawn) [compound 14, (2α,3β,4α)-9-[2-{[4-(2α,3β,23-Tris(Acetyloxy)-urs-12-en-28-oyl)-Homopiperazinyl]Carbonyl}Phenyl]-3,6-Bis(Dibutylamino)-Xanthylium Chloride]
- EC50 ([1]; Table 2): 49 ± 6 nM
- EC50 ([2]; Table 2): 150 ± 50 nM
- EC50 ([3]; Table 2): 4.5 ± 0.4 nM
- EC50 (A375 (melanoma); Table 2): 14 ± 1 nM
- EC50 ([4]; Table 2): 25 ± 5 nM
- EC50 at 72 h ([5]; Table 2, 72 h of treatment): 200 ± 100 nM

SMILES: CC(=O)OC[C@@]1(C)C2CC[C@]3(C)[C@H](CC=C4[C@@H]5[C@@H](C)[C@H](C)CC[C@]5(C(=O)N5CCCN(C(=O)c6ccccc6-c6c7ccc(=[N+](C)C)cc-7oc7cc(N(C)C)ccc67)CCC5)CC[C@]43C)[C@@]2(C)C[C@@H](OC(C)=O)[C@@H]1OC(C)=O (stereo partly drawn) [compound 16, (2α,3β,4α)-9-[2-[{4-(2α,3β,23-Tris(Acetyloxy)-urs-12-en-28-oyl)-1,5-Diazocan-1-Yl]Carbonyl}Phenyl]-3,6-Bis(Dimethylamino)-Xanthylium Chloride]
- EC50 ([1]; Table 2): 50 ± 10 nM
- EC50 ([2]; Table 2): 500 ± 200 nM
- EC50 ([3]; Table 2): 6 ± 1 nM
- EC50 (A375 (melanoma); Table 2): 70 ± 10 nM
- EC50 ([4]; Table 2): 50 ± 20 nM
- EC50 at 72 h ([5]; Table 2, 72 h of treatment): 400 ± 90 nM
